Test results reported in patent US11944627B2, “Methods for treating hematological malignancies and Ewing's sarcoma” (KURA ONCOLOGY, INC., priority 2017, dated 2024).

molecular target: T1, menin-MLL interaction (Homo sapiens, UniProt O00255); assay: Fluorescence polarization (FP) competition assay; type: binding; conditions: read-out: Menin MLL 4-43 IC50
T1 sequence (O00255 1-610): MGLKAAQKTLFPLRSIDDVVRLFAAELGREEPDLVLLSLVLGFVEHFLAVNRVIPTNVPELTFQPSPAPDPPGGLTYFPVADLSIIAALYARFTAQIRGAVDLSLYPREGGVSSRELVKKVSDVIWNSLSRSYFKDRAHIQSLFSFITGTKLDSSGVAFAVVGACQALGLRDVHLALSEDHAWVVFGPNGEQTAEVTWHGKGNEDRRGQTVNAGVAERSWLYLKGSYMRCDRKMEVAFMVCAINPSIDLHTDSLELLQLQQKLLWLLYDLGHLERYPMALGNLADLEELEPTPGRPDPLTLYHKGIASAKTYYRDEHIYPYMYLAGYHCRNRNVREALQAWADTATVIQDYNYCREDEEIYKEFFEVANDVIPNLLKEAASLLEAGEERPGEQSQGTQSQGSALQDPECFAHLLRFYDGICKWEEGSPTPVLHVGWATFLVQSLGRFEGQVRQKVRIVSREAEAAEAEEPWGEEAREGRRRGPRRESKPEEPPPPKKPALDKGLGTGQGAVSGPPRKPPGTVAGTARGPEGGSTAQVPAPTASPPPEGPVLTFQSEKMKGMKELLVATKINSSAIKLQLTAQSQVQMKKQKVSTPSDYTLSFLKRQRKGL

Row | IC50 [nM] | SMILES
1 | 250 to 1000 | Cc1c(CN2CCC(Nc3ncnc4sc(CC(F)(F)F)cc34)CC2)ccc2c1cc(C#N)n2CCN1CCC2(CC1)CCN(S(C)(=O)=O)C2 [Compound I-52]

system: MLL-AF9 BMC; assay: Cell proliferation assay, MLL-AF9 bone marrow cells; type: cell-based, murine; conditions: Mus musculus
Description: The ability of a compound of the present disclosure to inhibit the growth of selected cells was tested using a cell viability assay, such as the Promega CellTiter-Glo® Luminescent Cell Viability Assay (Promega Technical Bulletin, 2015, “CellTiter-Glo® Luminescent Cell Viability Assay”: 1-15, herein incorporated by reference in its entirety) or MTT cell proliferation assay (ATCC® 30-1010K) or cell counting. Compounds of the present disclosure can be tested in both acute myeloid leukemia cell lines or Ewing's sarcoma cell lines and control cell lines without the genetic abnormality or mutation being investigated (e.g., K562, REH, U937, KG-1, and/or HL-60). Selected cells can include, but are not limited to, cells such as human leukemia cell, acute myeloid leukemia cell, Ewing's sarcoma cell (e.g., SK-NEP-1, EW5, EW8, TC-71, TC-106, CHLA258, CHLA-9, CHLA-10, SK-ES-1, Hs 822.T, A-673, A-4573, Hs 863.T, RD-ES, CHLA-25, CHLA-32, CHLA-99, COG-E-352, TC-32, SK-N-MC), VCaP, LNCaP, 22RV1, DU145, LNCaP-AR, MV4;11, KOPN-8, ML-2, MOLM-13, RS4;11, SEM, bone marrow cells (BMCs), myeloblast cell, lymphoblast cell, NUP98 gene fusion cell (e.g., NUP98-PHF23 cell), NUP98-PHF23 (NP23) myeloblast cell (e.g., 961C), NUP98-PHF23 (NP23) lymphoblast cell (e.g., 748T, 106A), cell with an NPM1 mutation (e.g., OCI-AML3), cell without an NPM1 mutation, cell with a DNMT3A mutation (e.g., OCI-AML3, OCI-AML2, SET2), cell without a DNMT3A mutation, cell with a FLT3 mutation, cell without a FLT3 mutation, cell with an IDH1 mutation, cell without an IDH1 mutation, cell with an IDH2 mutation, cell without an IDH2 mutation, cell with a mixed lineage leukemia (MLL) gene amplification (e.g., UoC-M1, 2L1), cell without a mixed lineage leukemia (MLL) gene amplification, MLL-AF9, MLL-AF4, MLL-ENL, HM-2, E2A-HLF, REH, U937, HL-60, NB4, K562, KG-1, and OCI-AML2 cells. Cells were plated at relevant concentrations, for example about 1×10^5-2×10^5 cells per well in a 96-well plate. A compound of the present disclosure was added at a concentration up to about 2 μM with seven or eight, 2-fold serial dilutions for each compound. Cells were incubated at 37° C. for a period of time, for example, 72 hours, then cells in the control wells were counted. Media was changed to restore viable cell numbers to the original concentration, and compounds were re-supplied. Proliferation was measured about 72 hours later or about 96 hours later using Promega CellTiter-Glo® reagents or MTT reagents, as per kit instructions.

Row | SMILES | GI50 [nM]
2 | Cc1c(CN2CCC(Nc3ncnc4sc(CC(F)(F)F)cc34)CC2)ccc2c1cc(C#N)n2C[C@@H](C)N1CCN(S(C)(=O)=O)CC1 [Compound I-9] | 250 to 1000
3 | Cc1c(CN2CCC(Nc3ncnc4sc(CC(F)(F)F)cc34)CC2)ccc2c1cc(C#N)n2C[C@H](C)N1CCN(S(C)(=O)=O)CC1 [Compound I-10] | 10 to 50
4 | Cc1c(CN2CCC(Nc3ncnc4sc(CC(F)(F)F)cc34)CC2)ccc2c1cc(C#N)n2CC(C)N1CCN(S(C)(=O)=O)C(C(N)=O)C1 (stereo not shown) [Compound I-80] | 10 to 50
5 | CNS(=O)(=O)N1CCN([C@@H](C)Cn2c(C#N)cc3c(C)c(CN4CCC(Nc5nc(N)nc6sc(CC(F)(F)F)cc56)CC4)ccc32)CC1 [Compound I-132] | < 10
6 | Cc1c(CN2CCC(Nc3nc(N)nc4sc(CC(F)(F)F)cc34)CC2)ccc2c1cc(C#N)n2C[C@H](C)N1CCN(S(C)(=O)=O)CC1 [Compound I-135] | < 10
7 | Cc1nc(NC2CCN(Cc3ccc4c(cc(C#N)n4C[C@H](C)N4CCN(S(C)(=O)=O)CC4)c3C)CC2)c2cc(CC(F)(F)F)sc2n1 [Compound I-138] | 10 to 50
8 | CNS(=O)(=O)N1CCN([C@@H](C)Cn2c(C#N)cc3c(C)c(CN4CCC(Nc5nc(C)nc6sc(CC(F)(F)F)cc56)CC4)ccc32)CC1 [Compound I-139] | 10 to 50
9 | CNc1nc(NC2CCN(Cc3ccc4c(cc(C#N)n4C[C@H](C)N4CCN(S(C)(=O)=O)CC4)c3C)CC2)c2cc(CC(F)(F)F)sc2n1 [Compound I-151] | < 10
10 | Cc1c(CN2CCC(Nc3ncnc4sc(CC(F)(F)F)cc34)CC2)ccc2c1cc(C#N)n2C[C@H](C)N1CCN(S(C)(=O)=O)[C@H](C(N)=O)C1 [Compound I-163] | < 10
11 | Cc1nc(NC2CCN(Cc3ccc4c(cc(C#N)n4C[C@H](C)N4CCC(S(C)(=O)=O)CC4)c3C)CC2)c2cc(CC(F)(F)F)sc2n1 [Compound I-165] | < 10
12 | CCc1nc(NC2CCN(Cc3ccc4c(cc(C#N)n4C[C@H](C)N4CCN(S(C)(=O)=O)CC4)c3C)CC2)c2cc(CC(F)(F)F)sc2n1 [Compound I-171] | 10 to 50
13 | C[C@@H](Cn1c(C#N)cc2cc(CN3CCC(Nc4nc(N)nc5sc(CC(F)(F)F)cc45)CC3)c(O)cc21)N1CCN(S(C)(=O)=O)CC1 [Compound I-172] | < 10
14 | CCNc1nc(NC2CCN(Cc3ccc4c(cc(C#N)n4C[C@H](C)N4CCN(S(C)(=O)=O)CC4)c3C)CC2)c2cc(CC(F)(F)F)sc2n1 [Compound I-174] | 10 to 50
15 | Cc1c(CN2CCC(Nc3nc(N)nc4sc(CC(F)(F)F)cc34)CC2)ccc2c1cc(C#N)n2C[C@H](C)N1CCN(CC(N)=O)CC1 [Compound I-175] | 10 to 50
16 | CNC(=O)CN1CCN([C@@H](C)Cn2c(C#N)cc3c(C)c(CN4CCC(Nc5nc(N)nc6sc(CC(F)(F)F)cc56)CC4)ccc32)CC1 [Compound I-176] | 10 to 50
17 | CNS(=O)(=O)N1CCN([C@@H](C)Cn2c(C#N)cc3cc(CN4CCC(Nc5nc(N)nc6sc(CC(F)(F)F)cc56)CC4)c(O)cc32)CC1 [Compound I-177] | < 10
18 | Cc1c(CN2CCC(Nc3nc(N)nc4sc(CC(F)(F)F)cc34)CC2)ccc2c1cc(C#N)n2C[C@H](C)N1CCN(CC(=O)N(C)C)CC1 [Compound I-181] | 10 to 50
19 | COc1nc(NC2CCN(Cc3ccc4c(cc(C#N)n4C[C@H](C)N4CCN(S(C)(=O)=O)CC4)c3C)CC2)c2cc(CC(F)(F)F)sc2n1 [Compound I-183] | < 10
20 | CNc1nc(NC2CCN(Cc3ccc4c(cc(C#N)n4C[C@H](C)N4CCC(C)(C#N)CC4)c3C)CC2)c2cc(CC(F)(F)F)sc2n1 [Compound I-199] | < 10
21 | CNc1nc(NC2CCN(Cc3ccc4c(cc(C#N)n4C[C@H](C)N4CCS(=O)(=O)CC4)c3C)CC2)c2cc(CC(F)(F)F)sc2n1 [Compound I-203] | < 10
22 | CNS(=O)(=O)N1CCN([C@@H](C)Cn2c(C#N)cc3c(C)c(CN4CCC(Nc5nc(OC)nc6sc(CC(F)(F)F)cc56)CC4)ccc32)CC1 [Compound I-205] | < 10
23 | CNc1nc(NC2CCN(Cc3ccc4c(cc(C#N)n4C[C@H](C)N4CCC(C)(O)CC4)c3C)CC2)c2cc(CC(F)(F)F)sc2n1 [Compound I-207] | < 10
24 | CNS(=O)(=O)C1CCN([C@@H](C)Cn2c(C#N)cc3c(C)c(CN4CCC(Nc5nc(OC)nc6sc(CC(F)(F)F)cc56)CC4)ccc32)CC1 [Compound I-214] | < 10
25 | CNC(=O)C1CN([C@@H](C)Cn2c(C#N)cc3c(C)c(CN4CCC(Nc5nc(NC)nc6sc(CC(F)(F)F)cc56)CC4)ccc32)CCO1 (stereo partly shown) [Compound I-217] | 10 to 50

system: LXFE 2734 cells; assay: Serial bleed FACS analysis and survival study in LXFE 2734 mouse model; conditions: LXFE 2734 model, compared to vehicle; FIG. 11
Description: Human leukemia cells were detected by FACS biweekly starting from week 2 post-cell inoculation.

Row | SMILES | overall survival
26 | CC(C)(C)c1cc(NC(=O)Nc2ccc(-c3cn4c(n3)sc3cc(OCCN5CCOCC5)ccc34)cc2)no1 [quizartinib] | prolonged survival

same assay, conditions: LXFE 2734 model, quizartinib ~3 mg/kg qd

Row | SMILES | surviving animals
27 | CC(C)(C)c1cc(NC(=O)Nc2ccc(-c3cn4c(n3)sc3cc(OCCN5CCOCC5)ccc34)cc2)no1 [quizartinib] | no quizartinib treated animals surviving after 77 days

same assay, conditions: LXFE 2734 model; Compound A ~150 mg/kg p.o. qd, quizartinib ~3 mg/kg qd; FIG. 10

Row | SMILES | leukemic progression (CD45+/CD33+ blasts, FACS)
28 | CC(C)(C)c1cc(NC(=O)Nc2ccc(-c3cn4c(n3)sc3cc(OCCN5CCOCC5)ccc34)cc2)no1 [quizartinib] | evidence of leukemia relapse

system: AM7577 cells; assay: Serial bleed FACS analysis and survival study in AM7577 mouse model (Example 30); conditions: Compound A ~100 or ~150 mg/kg, quizartinib ~3 mg/kg, combination ~100 + ~2 mg/kg, p.o. qd, FIG. 8

Row | SMILES | leukemic progression (CD45+/CD38+ blasts, serial bleed FACS)
29 | CC(C)(C)c1cc(NC(=O)Nc2ccc(-c3cn4c(n3)sc3cc(OCCN5CCOCC5)ccc34)cc2)no1 [quizartinib] | evidence of leukemia breakout after 63 days

same assay, conditions: compared to vehicle, FIG. 9A

Row | SMILES | overall survival
30 | CC(C)(C)c1cc(NC(=O)Nc2ccc(-c3cn4c(n3)sc3cc(OCCN5CCOCC5)ccc34)cc2)no1 [quizartinib] | prolonged survival

same assay, conditions: quizartinib only treatment

Row | SMILES | surviving animals
31 | CC(C)(C)c1cc(NC(=O)Nc2ccc(-c3cn4c(n3)sc3cc(OCCN5CCOCC5)ccc34)cc2)no1 [quizartinib] | no surviving animals after 84 days
